Laboratory results published in US9422285B2, “Substituted pyrazolo[1,5-A]-pyridine-3-carboxamides and use thereof” (Bayer Pharma Aktiengesellschaft, priority 2014, dated 2016).
Counter-ions that a name gives are not always drawn.

What was measured:
[1] = Pharmacokinetic parameters following intravenous administration in rats (B-6); format: in vivo, male Wistar rats; conditions: for MRT / half-life: male, Wistar, rat, plasma; for MRT: mean residence time; for half-life: terminal half-life
Description: • Klaus Witte, Kai Hu, Johanna Swiatek, Claudia Müssig, Georg Ertl and Bjorn Lemmer: Experimental heart failure in rats: effects on cardiovascular circadian rhythms and on myocardial β-adrenergic signaling. Cardiovasc Res 47 (2): […], 2000; Kozo Okamoto: Spontaneous hypertension in rats. Int Rev Exp Pathol 7: 227-270, 1969; Maarten van den Buuse: Circadian Rhythms of Blood Pressure, Heart Rate, and Locomotor Activity in Spontaneously Hypertensive Rats as Measured With Radio-Telemetry. Physiology & Behavior 55(4): 783-787, 1994 B-6. Determination of Pharmacokinetic Parameters Following Intravenous and Oral Administration
The pharmacokinetic parameters of the inventive compounds are determined in male CD-1 mice, male Wistar rats and female beagles. Intravenous administration in the case of mice and rats is effected by means of a species-specific plasma/DMSO formulation, and in the case of dogs by means of a water/PEG400/ethanol formulation. In all species, oral administration of the dissolved substance is performed via gavage, based on a water/PEG400/ethanol formulation. The removal of blood from rats is simplified by inserting a silicone catheter into the right Vena jugularis externa prior to substance administration. The operation is effected at least one day prior to the experiment with isofluran anaesthesia and administration of an analgesic (atropine/rimadyl (3/1) 0.1 ml s.c.). The blood is taken (generally more than 10 time points) within a time window including terminal time points of at least 24 to a maximum of 72 hours after substance administration. The blood is removed into heparinized tubes. The blood plasma is then obtained by centrifugation; if required, it can be stored at −20° C. until further processing.
An internal standard (which may also be a chemically unrelated substance) is added to the samples of the inventive compounds, calibration samples and qualifiers, and there follows protein precipitation by means of acetonitrile in excess. Addition of a buffer solution matched to the LC conditions, and subsequent vortexing, is followed by centrifugation at 1000 g. The supernatant is analysed by means of LC-MS/MS using C18 reversed-phase columns and variable mobile phase mixtures. The substances are quantified via the peak heights or areas from extracted ion chromatograms of specific selected ion monitoring experiments.
The plasma concentration/time plots determined are used to calculate the pharmacokinetic parameters such as AUC, Cmax, t1/2 (terminal half-life), F (bioavailability), MRT (mean residence time) and CL (clearance), by means of a validated pharmacokinetic calculation program.
Since the substance quantification is performed in plasma, it is necessary to determine the blood/plasma distribution of the substance in order to be able to adjust the pharmacokinetic parameters correspondingly. For this purpose, a defined amount of substance is incubated in heparinized whole blood of the species in question in a rocking roller mixer for 20 min. After centrifugation at 1000 g, the plasma concentration is measured (by means of LC-MS/MS; see above) and determined by calculating the ratio of the Cblood/Cplasma value.

[2] = target: T1, recombinant guanylate cyclase reporter cell line (Rattus norvegicus, UniProt P19686+P20595); assay: Effect on a recombinant guanylate cyclase reporter cell line (B-2); format: cell-based; conditions: in some cases mean values for individual determinations
T1 construct: expressed in transfected cells
T1 sequence (P19686 1-690): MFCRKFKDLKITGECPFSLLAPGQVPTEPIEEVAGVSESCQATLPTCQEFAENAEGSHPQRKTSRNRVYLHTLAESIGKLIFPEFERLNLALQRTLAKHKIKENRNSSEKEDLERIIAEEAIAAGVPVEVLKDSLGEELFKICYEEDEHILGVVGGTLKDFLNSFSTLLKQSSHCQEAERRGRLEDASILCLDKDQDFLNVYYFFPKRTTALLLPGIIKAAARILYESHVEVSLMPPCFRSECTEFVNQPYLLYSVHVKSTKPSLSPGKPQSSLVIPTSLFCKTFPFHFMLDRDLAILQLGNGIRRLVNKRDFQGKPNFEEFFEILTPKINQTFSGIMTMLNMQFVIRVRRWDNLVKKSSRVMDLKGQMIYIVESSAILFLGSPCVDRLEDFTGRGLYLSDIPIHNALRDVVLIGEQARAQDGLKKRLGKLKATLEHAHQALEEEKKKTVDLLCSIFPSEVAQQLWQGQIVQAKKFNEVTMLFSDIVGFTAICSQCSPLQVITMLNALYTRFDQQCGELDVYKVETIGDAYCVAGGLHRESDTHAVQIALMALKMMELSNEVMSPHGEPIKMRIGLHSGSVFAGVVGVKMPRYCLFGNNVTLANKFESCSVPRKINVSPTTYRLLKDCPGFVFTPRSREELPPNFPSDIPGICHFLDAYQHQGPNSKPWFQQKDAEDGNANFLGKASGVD
T1 sequence (P20595 1-619): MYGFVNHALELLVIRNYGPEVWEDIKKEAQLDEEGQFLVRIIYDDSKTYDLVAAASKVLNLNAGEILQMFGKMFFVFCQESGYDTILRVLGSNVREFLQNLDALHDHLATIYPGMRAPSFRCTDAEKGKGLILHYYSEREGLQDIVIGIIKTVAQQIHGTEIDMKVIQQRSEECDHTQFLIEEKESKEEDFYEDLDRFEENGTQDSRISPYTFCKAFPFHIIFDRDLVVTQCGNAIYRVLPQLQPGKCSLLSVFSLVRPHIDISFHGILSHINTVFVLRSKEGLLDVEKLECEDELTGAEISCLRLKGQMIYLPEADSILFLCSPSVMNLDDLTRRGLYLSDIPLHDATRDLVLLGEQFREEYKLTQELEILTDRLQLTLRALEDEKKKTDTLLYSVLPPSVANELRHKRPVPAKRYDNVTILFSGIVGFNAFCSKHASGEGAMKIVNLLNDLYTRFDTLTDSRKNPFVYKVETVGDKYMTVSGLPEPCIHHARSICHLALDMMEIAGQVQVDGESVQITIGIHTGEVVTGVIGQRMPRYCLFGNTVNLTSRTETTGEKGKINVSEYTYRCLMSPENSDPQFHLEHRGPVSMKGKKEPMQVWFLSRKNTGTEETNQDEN
Protocol: B-2. Effect on a Recombinant Guanylate Cyclase Reporter Cell Line
The cellular effect of the inventive compounds is determined using a recombinant guanylate cyclase reporter cell line, as described in F. Wunder et al., Anal. Biochem. 339, 104-112 (2005).
Representative MEC values (MEC=minimum effective concentration) for the inventive compounds are shown in the table below (in some cases as mean values for individual determinations): […]

SMILES	AUCnormal [1]	CLblood [1]	MRT [1]	half-life [1]	MEC (minimum effective concentration) [2]
Cc1cc(OCc2c(F)cccc2F)n2nc(C)c(C(=O)NCC(C)(N)CCC(F)(F)F)c2c1 (single isomer, unassigned) [Example 43, ent-N-(2-Amino-5,5,5-trifluoro-2-methylpentyl)-7-[(2,6-difluorobenzyl)oxy]-2,5-dimethylpyrazolo[1,5-a]pyridine-3-carboxamide]	0.49 kg·h/L	42.7 mL/min/kg	7.4 h	5.9 h	0.1 µM
CCCC(C)(N)CNC(=O)c1c(C)nn2c(OCc3c(F)cccc3F)cc(C)cc12 (single isomer, unassigned) [Example 39, ent-N-(2-Amino-2-methylpentyl)-7-[(2,6-difluorobenzyl)oxy]-2,5-dimethylpyrazolo[1,5-a]pyridine-3-carboxamide]	0.53 kg·h/L	41 mL/min/kg	7.8 h	6.2 h	0.3 µM
Cc1cc(OCc2c(F)ccc(F)c2F)n2nc(C)c(C(=O)NCC(C)(N)CCC(F)(F)F)c2c1 (single isomer, unassigned; enantiomer b) [Example 168, ent-N-(2-Amino-5,5,5-trifluoro-2-methylpentyl)-2,5-dimethyl-7-[(2,3,6-trifluorobenzyl)oxy]pyrazolo[1,5-a]pyridine-3-carboxamide (Enantiomer B)]	0.45 kg·h/L	36.5 mL/min/kg	4.3 h	3.2 h	0.1 µM
CCCC(C)(N)CNC(=O)c1c(C2CC2)nn2c(OCc3c(F)cccc3F)cc(C)cc12 (single isomer, unassigned) [Example 55, ent-N-(2-Amino-2-methylpentyl)-2-cyclopropyl-7-[(2,6-difluorobenzyl)oxy]-5-methylpyrazolo[1,5-a]pyridine-3-carboxamide]	0.37 kg·h/L	46 mL/min/kg	3.5 h	2.6 h	0.1 µM
CCCC(C)(N)CNC(=O)c1c(C2CC2)nn2c(OCc3c(F)ccc(F)c3F)cc(C)cc12 (single isomer, unassigned; enantiomer b) [Example 169, ent-N-(2-Amino-2-methylpentyl)-2-cyclopropyl-5-methyl-7-[(2,3,6-trifluorobenzyl)oxy]pyrazolo[1,5-a]pyridine-3-carboxamide (Enantiomer B)]	0.44 kg·h/L	36.8 mL/min/kg	4.9 h	4 h	0.2 µM
Cc1cc(OCc2c(F)ccc(F)c2F)n2nc(C3CC3)c(C(=O)NCC(C)(N)CCC(F)(F)F)c2c1 (single isomer, unassigned; enantiomer b) [Example 170, ent-N-(2-Amino-5,5,5-trifluoro-2-methylpentyl)-2-cyclopropyl-5-methyl-7-[(2,3,6-trifluorobenzyl)oxy]pyrazolo[1,5-a]pyridine-3-carboxamide (Enantiomer B)]	0.32 kg·h/L	48.7 mL/min/kg	3.4 h	2.6 h	0.1 µM
Cc1cc(OCc2c(F)cccc2F)n2nc(C)c(C(=O)NCC(N)c3ccc(C)o3)c2c1 (racemic) [Example 104, rac-N-[2-Amino-2-(5-methyl-2-furyl)ethyl]-7-[(2,6-difluorobenzyl)oxy]-2,5-dimethylpyrazolo[1,5-a]pyridine-3-carboxamide]	–	–	–	–	3.0 µM
Cc1cc(OCc2c(F)ccc(F)c2F)n2nc(C)c(C(=O)NCc3ncc[nH]3)c2c1 [Example 18, N-(1H-Imidazol-2-ylmethyl)-2,5-dimethyl-7-[(2,3,6-trifluorobenzyl)oxy]pyrazolo[1,5-a]pyridine-3-carboxamide]	–	–	–	–	3.0 µM
Cc1cc(OCc2c(F)ccc(F)c2F)n2nc(C)c(C(=O)Nc3c(C(F)(F)F)n[nH]c3C)c2c1 [Example 20, 2,5-Dimethyl-N-[5-methyl-3-(trifluoromethyl)-1H-pyrazol-4-yl]-7-[(2,3,6-trifluorobenzyl)oxy]pyrazolo[1,5-a]pyridine-3-carboxamide]	–	–	–	–	0.3 µM
Cc1cc(OCc2c(F)cccc2F)n2nc(C)c(C(=O)NNc3ccc(F)cc3)c2c1 [Example 66, 7-[(2,6-Difluorobenzyl)oxy]-N′-(4-fluorophenyl)-2,5-dimethylpyrazolo[1,5-a]pyridine-3-carbohydrazide trifluoroacetate]	–	–	–	–	0.3 µM
CCCC(C)(N)CNC(=O)c1c(C)nn2c(OCc3c(F)cccc3F)cccc12 (racemic) [Example 163, rac-N-(2-Amino-2-methylpentyl)-7-[(2,6-difluorobenzyl)oxy]-2-methylpyrazolo[1,5-a]pyridine-3-carboxamide]	–	–	–	–	3.0 µM
Cc1cc(OCc2c(F)cccc2F)n2nc(C)c(C(=O)NC(CN)c3cccc(Br)c3)c2c1 (racemic) [Example 126, rac-N-[2-Amino-1-(3-bromphenyl)ethyl]-7-[(2,6-difluorobenzyl)oxy]-2,5-dimethylpyrazolo[1,5-a]pyridine-3-carboxamide]	–	–	–	–	1.0 µM
Cc1cc(OCc2c(F)cccc2F)n2nc(C)c(C(=O)NCC(N)c3cccc(OCCO)c3)c2c1 (racemic) [Example 72, rac-N-{2-Amino-2-[3-(2-hydroxyethoxy)phenyl]ethyl]-7-[(2,6-difluorobenzyl)oxy]-2,5-dimethylpyrazolo[1,5-a]pyridine-3-carboxamide trifluoroacetate]	–	–	–	–	10 µM
